Consider 25 compounds from ChEMBL document CHEMBL4152297, “Ligand-selective small molecule modulators of the constitutively active vGPCR US28” (Eur J Med Chem, 2018).

Common to all, as to type: cell-based
For assay [1], the system named is HEK293. Put plainly: Modulation of basal activity of HCMV US28 expressed in tetracyclin-induced HEK293 cells assessed as change in inositol phosphate accumulation at 10 uM using [3H]-myo-inositol by scintillation proximity assay relative to control. Conditions: Human betaherpesvirus 5. (In general: In a scintillation proximity assay essentially only radioactivity close to the scintillant gives light.)

Assay [2] has as its system HEK293. The assay can be described thus: Displacement of [125I]-CCL2 from HCMV US28 expressed in HEK293 cells at 10 uM after 3 hrs by gamma counting method relative to control. As to conditions: Human betaherpesvirus 5.
Assay [3] in a line: Modulation of basal activity of HCMV US28 delta300 mutant expressed in tetracyclin-induced HEK293 cells assessed as change in inositol phosphate accumulation using [3H]-myo-inositol by scintillation proximity assay. As to conditions: Human betaherpesvirus 5, HEK293.
Assay [4] relates to HEK293. Put plainly: Modulation of basal activity of HCMV US28 delta300 mutant expressed in tetracyclin-induced HEK293 cells assessed as change in inositol phosphate accumulation at 10 uM using [3H]-myo-inositol by scintillation proximity assay relative to control. As to conditions: Human betaherpesvirus 5.
Assay [5] is described as follows: Modulation of basal activity of HCMV US28 expressed in tetracyclin-induced HEK293 cells assessed as change in inositol phosphate accumulation using [3H]-myo-inositol by scintillation proximity assay. As to conditions: Human betaherpesvirus 5, HEK293.

SMILES strings stand for the structures. Bounds are passed on as bounds.

Take `Cc1ccc2nc(CN3CCN(CC(=O)Nc4ccc(F)cc4)CC3)cc(=O)n2c1`: in the assay with HEK293 [1], the Efficacy is -10%.
With `CNC(=O)NC(=O)CN1CCC(Cn2c(C)nc3ccccc32)CC1`, in the assay with HEK293 [2], the Efficacy is 0%.
Take `NC(=O)c1ccc(NC(=O)CN2CCC(Cn3c(COc4ccccc4)nc4ccccc43)CC2)cc1`: the EC50 was 7.96 µM in assay [3] (read-out: EC50) and 7.94 µM in assay [3] (read-out: pEC50 (converted)). In addition, the Efficacy in the assay on HEK293 [4] amounted to 77%.
With `O=C(CN1CCC(Cn2cnc3ccccc32)CC1)Nc1ccccn1`, the Efficacy with HEK293 [2] is 10%.
Still for that read-out and setting: then `O=C(CN1CCN(Cc2nc3ccccc3[nH]2)CC1)Nc1ccc(F)cc1F`, with -7%.
Take `NC(=O)c1c(NC(=O)CN2CCN(Cc3ccc4c(c3)OCO4)CC2)sc2c1CCCC2`: the values for the EC50 in assay [5] (read-out: EC50) and in assay [5] (read-out: pEC50 (converted)) were 0.089 µM and 0.1 µM, respectively. Further, in the assay with HEK293 [1], the Efficacy was -31%.
The corresponding values for `O=C(CN1CCN(Cc2nc(-c3cccc(C(F)(F)F)c3)no2)CC1)NC1CCCCC1` are 19.1 µM, 20 µM and -23%.
On to `CCc1ccc(-c2nc(CN3CCN(CC(=O)NC4CC4)CC3)cs2)cc1`, for which the EC50 in assay [3] (read-out: EC50) is 11 µM; in assay [3] (read-out: pEC50 (converted)) it was 10 µM. For the same compound, in the assay with HEK293 [4], the Efficacy stood at 51%.
Take `O=C(CN1CCN(CN2C(=O)NC3(CCCCC3)C2=O)CC1)Nc1ccc(OC(F)(F)F)cc1`: the EC50 in assay [5] (read-out: EC50) was 0.536 µM; in assay [5] (read-out: pEC50 (converted)), 0.501 µM. Also, the Efficacy in the assay with HEK293 [1] is -12%.
As for `O=C(CN1CCN(Cc2cccc3ccccc23)CC1)Nc1ccc2c(c1)OCO2`, the EC50 is 0.039 µM in assay [5] (read-out: EC50), 0.0398 µM in assay [5] (read-out: pEC50 (converted)), above 10 µM in assay [3] (read-out: EC50) and below 10 µM in assay [3] (read-out: pEC50 (converted)). Besides, the Efficacy was -24% with HEK293 [1] and 53% with HEK293 [4].
On to `O=C(CN1CCC(Cn2c(C(F)(F)F)nc3ccccc32)CC1)Nc1ccccc1C(F)(F)F`, for which the EC50 was 1.14 µM in assay [5] (read-out: EC50) and 1.26 µM in assay [5] (read-out: pEC50 (converted)). Besides, in the assay with HEK293 [1], the Efficacy was -28%.
Regarding `NC(=O)c1ccc(NC(=O)CN2CCC(Cn3cnc4ccccc43)CC2)cc1`, the Efficacy in the assay with HEK293 [2] is -4%.
For `Cc1cc(C)n(CC2CCN(CC(=O)N3CCc4ccccc43)CC2)n1`, the EC50 in assay [3] (read-out: EC50) was above 10 µM; in assay [3] (read-out: pEC50 (converted)), below 10 µM. The Efficacy with HEK293 [4] is 76%.
In the case of `O=C(CN1CCC(Cn2cnc3ccccc32)CC1)Nc1nccs1`, in the assay on HEK293 [2], the Efficacy came to 5%.
With `O=C(CN1CCN(CC2CCCCC2)CC1)Nc1ccc(F)cc1`, the Efficacy in the assay with HEK293 [1] was -15%.
On the same count and under the same terms, then `Cc1ncc(CN2CCN(CC(=O)Nc3ccc(F)cc3)CC2)s1`, with -20%.
As to `O=C(CN1CCC(C(=O)N2CCN(c3ccc(F)cc3)CC2)CC1)Nc1ccc(F)cc1`, the EC50 was 1.57 µM in assay [5] (read-out: EC50) and 1.55 to 1.58 µM in assay [5] (read-out: pEC50 (converted)). In addition, the Efficacy in the assay with HEK293 [1] is -32%.
In the case of `Cc1nc2ccccc2n1CC1CCN(CC(=O)Nc2cccnc2)CC1`, the Efficacy in the assay with HEK293 [2] was -2%.
For the compound `O=C(CN1CCN(Cc2csc(-c3ccccc3)n2)CC1)Nc1ccc(F)cc1`, in the assay on HEK293 [1], the Efficacy was -17%.
As to `CC(C(=O)Nc1sccc1C(N)=O)N1CCN(Cc2nc3ccccc3s2)CC1` (stereo not drawn), the EC50 is 3.84 µM in assay [5] (read-out: EC50) and 3.98 µM in assay [5] (read-out: pEC50 (converted)). For the same compound, the Efficacy with HEK293 [1] is -46%.
For `COc1ccc(-c2csc(NC(=O)CN3CCN(Cc4ccc5c(c4)OCO5)CC3)n2)cc1` the same measures were 1.8 µM, 2 µM and -30%.
For `N#Cc1c(CN2CCN(CC(=O)Nc3ccccc3Cl)CC2)cn2ccccc12` the same measures were 0.067 µM, 0.0631 µM and -15%.
`Cc1cc2ncn(CC3CCN(CC(=O)Nc4ccc5c(c4)OCO5)CC3)c2cc1C`: the EC50 in assay [3] (read-out: EC50) was 1.52 µM; in assay [3] (read-out: pEC50 (converted)), 1.58 µM. Also, in the assay with HEK293 [4], the Efficacy stood at 58%.
The corresponding values for `O=C(CN1CCN(Cc2csc3ccccc23)CC1)NC1CCCC1` are above 10 µM, below 10 µM and 56%.
As to `O=C(CN1CCN(Cc2nc3ccccc3n2Cc2ccccc2)CC1)Nc1ccccc1F`, the EC50 in assay [5] (read-out: EC50) was 9.37 µM; in assay [5] (read-out: pEC50 (converted)), 10 µM. Further, in the assay with HEK293 [1], the Efficacy is -20%.
